According to ChEMBL document CHEMBL1201862, “PubChem BioAssay data set” (2004):
The source made the active and inactive calls.

system: not listed separately; assay: cells; format: functional; settings: not given

| SMILES | IC50 |
| --- | --- |
| c1ccc(C2=Nc3ccccc3OC2)cc1 | 7.95 µM (active) |

system: INS1; assay: beta cell apoptosis inhibitors, cytokine rescue, dose response, luminescence, retest (AID 449756); format: functional, cell-based; settings: Rattus norvegicus;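 note: cell death triggered by IL-1 beta plus TNF-alpha plus IFN-gamma mixture; protective hits raise ATP signal compared with cytokine alone wells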

| SMILES | AC50 |
| --- | --- |
| CCCCOC(=O)c1ccc(NC(c2ccc(C)cc2)P(=O)(OC)OC)cc1 (stereo unspecified) | 30.8 µM (active) |

biological target: T1, Corticotropin-releasing factor receptor 2/Corticotropin-releasing factor-binding protein (Homo sapiens, UniProt P24387+Q13324); assay: Dose Response confirmation of uHTS hits for small molecule antagonists of the CRF-binding protein and CRF-R2 receptor complex.; format: functional; settings: read-out: IC50_Mean
T1 sequence (Q13324 whole entry): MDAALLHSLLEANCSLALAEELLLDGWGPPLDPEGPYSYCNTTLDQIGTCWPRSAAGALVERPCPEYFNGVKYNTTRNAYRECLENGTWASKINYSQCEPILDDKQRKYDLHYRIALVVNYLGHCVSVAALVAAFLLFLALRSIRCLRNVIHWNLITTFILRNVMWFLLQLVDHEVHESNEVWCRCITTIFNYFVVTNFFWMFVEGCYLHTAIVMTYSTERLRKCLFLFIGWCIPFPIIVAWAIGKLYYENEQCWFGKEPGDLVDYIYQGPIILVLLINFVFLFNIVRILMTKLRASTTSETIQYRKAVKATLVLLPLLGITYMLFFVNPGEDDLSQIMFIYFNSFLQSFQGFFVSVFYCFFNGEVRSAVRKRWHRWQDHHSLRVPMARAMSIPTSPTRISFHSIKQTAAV
T1 sequence (P24387 whole entry): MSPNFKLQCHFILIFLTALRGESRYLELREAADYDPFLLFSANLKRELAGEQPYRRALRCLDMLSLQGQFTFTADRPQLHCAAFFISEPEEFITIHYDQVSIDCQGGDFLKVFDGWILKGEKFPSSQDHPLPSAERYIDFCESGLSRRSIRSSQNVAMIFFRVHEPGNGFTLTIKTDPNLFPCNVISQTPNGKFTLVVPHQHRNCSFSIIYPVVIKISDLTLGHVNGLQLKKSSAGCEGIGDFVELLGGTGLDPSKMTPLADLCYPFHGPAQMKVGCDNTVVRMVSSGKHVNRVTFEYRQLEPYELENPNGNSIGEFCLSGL

| SMILES | IC50 |
| --- | --- |
| CCCCOC(=O)c1ccc(NC(c2ccc(C)cc2)P(=O)(OC)OC)cc1 (stereo unspecified) | > 47.1 µM (inactive) |
| CSCSC1=C(C#N)C(c2ccccc2Cl)C(C(C)=O)=C(C)N1 (stereo unspecified) | > 47.1 µM (inactive) |
| CC1C(=O)C(C)C(c2cccs2)NC1c1cccs1 (stereo unspecified) | > 47.1 µM (inactive) |
| FC(F)(F)c1nnc2sc(-c3cccs3)nn12 | > 47.1 µM (inactive) |
| COC(=O)C(OC(=O)c1ccccc1)C(C)Br (stereo unspecified) | > 47.1 µM (inactive) |
| COc1ccc(/C=C2\CCC(C3CCCC3)C2=O)cc1OC (stereo unspecified) | > 47.1 µM (inactive) |
| CN(C)c1ncnc2c1N=C1CC(C)(C)CC(NCCCC(=O)O)=C1S2 | > 47.1 µM (inactive) |
| Cc1nn(-c2ccc([N+](=O)[O-])cc2)c(N)c1-c1ccccc1 | > 47.1 µM (inactive) |
| CCOC(=O)c1c(C)[nH]c(C)c1C(=O)COC(=O)/C=C/c1ccc(Cl)cc1 | > 47.1 µM (inactive) |
| CCCN1CCN(C2CCCCC2NS(=O)(=O)c2ccc(Cl)cc2)CC1 (stereo unspecified) | > 47.1 µM (inactive) |
| CC(C)CCOP(=O)(c1ccc(N(C)C)cc1)C(Nc1ccccc1)c1ccc(N(C)C)cc1 (stereo unspecified) | > 47.1 µM (inactive) |
| COc1cccc(C2C(C(=O)c3ccc(C)o3)=C(O)C(=O)N2CCN2CCOCC2)c1OC (stereo unspecified) | > 47.1 µM (inactive) |
| Cc1ccc(S(=O)(=O)N2CCC(c3nc4c(nnn4Cc4ccccc4)c(=O)[nH]3)CC2)cc1 | > 47.1 µM (inactive) |
| CCN(CC(=O)Nc1ccc(OC)cc1)C(=O)c1cc(S(=O)(=O)N2CCOCC2)ccc1N1CCCC1 | > 47.1 µM (inactive) |
| CC1CCN(C(=O)c2nc[nH]c2C(=O)N[C@@H](C)C(=O)OC(C)(C)C)CC1 | > 47.1 µM (inactive) |
| O=[N+]([O-])c1ccccc1C=NNC(=S)NN=Cc1ccccc1[N+](=O)[O-] | > 47.1 µM (inactive) |
| CCC/C(=N/CC(=O)O)C1=C(O)C(C(=O)OC)C(C)(C)CC1=O (stereo unspecified) | > 47.1 µM (inactive) |
| COC(=O)c1ccc(/C(O)=C(\C#N)c2nc3ccccc3s2)cc1 | 3.93 µM (active) |
| COc1ccc(C2CC(c3cccs3)=NN2C(=O)c2ccccc2)cc1OC (stereo unspecified) | > 47.1 µM (inactive) |

biological target: T1, Corticotropin-releasing factor receptor 2/Corticotropin-releasing factor-binding protein; assay: activators of CRF receptor 2 with binding protein – uHTS hits, confirmation (AID 602473); format: functional; settings: read-out: EC50_Mean

| SMILES | EC50 |
| --- | --- |
| CCCCOC(=O)c1ccc(NC(c2ccc(C)cc2)P(=O)(OC)OC)cc1 (stereo unspecified) | > 53 µM (inactive) |
| CSCSC1=C(C#N)C(c2ccccc2Cl)C(C(C)=O)=C(C)N1 (stereo unspecified) | > 53 µM (inactive) |
| CC1C(=O)C(C)C(c2cccs2)NC1c1cccs1 (stereo unspecified) | > 53 µM (inactive) |
| FC(F)(F)c1nnc2sc(-c3cccs3)nn12 | > 53 µM (inactive) |
| COC(=O)C(OC(=O)c1ccccc1)C(C)Br (stereo unspecified) | > 53 µM (inactive) |
| COc1ccc(/C=C2\CCC(C3CCCC3)C2=O)cc1OC (stereo unspecified) | > 53 µM (inactive) |
| CN(C)c1ncnc2c1N=C1CC(C)(C)CC(NCCCC(=O)O)=C1S2 | > 53 µM (inactive) |
| Cc1nn(-c2ccc([N+](=O)[O-])cc2)c(N)c1-c1ccccc1 | > 53 µM (inactive) |
| CCOC(=O)c1c(C)[nH]c(C)c1C(=O)COC(=O)/C=C/c1ccc(Cl)cc1 | > 53 µM (inactive) |
| CCCN1CCN(C2CCCCC2NS(=O)(=O)c2ccc(Cl)cc2)CC1 (stereo unspecified) | > 53 µM (inactive) |
| CC(C)CCOP(=O)(c1ccc(N(C)C)cc1)C(Nc1ccccc1)c1ccc(N(C)C)cc1 (stereo unspecified) | > 53 µM (inactive) |
| COc1cccc(C2C(C(=O)c3ccc(C)o3)=C(O)C(=O)N2CCN2CCOCC2)c1OC (stereo unspecified) | > 53 µM (inactive) |
| Cc1ccc(S(=O)(=O)N2CCC(c3nc4c(nnn4Cc4ccccc4)c(=O)[nH]3)CC2)cc1 | > 53 µM (inactive) |
| CCN(CC(=O)Nc1ccc(OC)cc1)C(=O)c1cc(S(=O)(=O)N2CCOCC2)ccc1N1CCCC1 | > 53 µM (inactive) |
| CC1CCN(C(=O)c2nc[nH]c2C(=O)N[C@@H](C)C(=O)OC(C)(C)C)CC1 | > 53 µM (inactive) |
| O=[N+]([O-])c1ccccc1C=NNC(=S)NN=Cc1ccccc1[N+](=O)[O-] | > 53 µM (inactive) |
| CCC/C(=N/CC(=O)O)C1=C(O)C(C(=O)OC)C(C)(C)CC1=O (stereo unspecified) | > 53 µM (inactive) |
| COC(=O)c1ccc(/C(O)=C(\C#N)c2nc3ccccc3s2)cc1 | > 53 µM (inactive) |
| COc1ccc(C2CC(c3cccs3)=NN2C(=O)c2ccccc2)cc1OC (stereo unspecified) | > 53 µM (inactive) |

biological target: T2, Rac GTPase-activating protein 1 (Homo sapiens, UniProt Q9H0H5); assay: MgcRacGAP GTPase-activating activity inhibitors, confirmation, biochemical, ADP Hunter fluorescence, primary and confirmatory (AID 624330); format: functional; settings: not given
T2 sequence (Q9H0H5 whole entry): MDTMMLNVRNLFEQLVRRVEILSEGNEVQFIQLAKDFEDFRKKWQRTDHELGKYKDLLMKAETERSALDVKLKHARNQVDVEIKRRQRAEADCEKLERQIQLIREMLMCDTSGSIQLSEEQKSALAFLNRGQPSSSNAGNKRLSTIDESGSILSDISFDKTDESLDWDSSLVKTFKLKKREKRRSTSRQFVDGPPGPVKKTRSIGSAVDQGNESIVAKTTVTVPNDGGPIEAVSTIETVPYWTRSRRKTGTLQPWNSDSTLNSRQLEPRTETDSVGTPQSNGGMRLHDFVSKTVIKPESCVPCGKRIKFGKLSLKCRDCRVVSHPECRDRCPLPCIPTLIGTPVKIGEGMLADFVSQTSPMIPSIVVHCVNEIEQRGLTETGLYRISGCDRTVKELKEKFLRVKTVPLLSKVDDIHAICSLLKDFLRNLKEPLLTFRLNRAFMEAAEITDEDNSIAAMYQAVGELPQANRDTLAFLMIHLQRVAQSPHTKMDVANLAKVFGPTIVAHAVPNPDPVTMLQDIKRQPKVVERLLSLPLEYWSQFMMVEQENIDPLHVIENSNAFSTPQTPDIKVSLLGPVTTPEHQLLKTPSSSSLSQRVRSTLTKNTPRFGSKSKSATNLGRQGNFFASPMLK

| SMILES | IC50 |
| --- | --- |
| CN(C)c1ncnc2c1N=C1CC(C)(C)CC(NCCCC(=O)O)=C1S2 | 78.8 µM (active) |
